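A five-concentration, 48-hour dose response in 96-well plates underlies each endpoint, interpolated linearly between surrounding concentrations. Here, GI50 denotes the concentration required for 50% inhibition of growth. The concentration for full growth arrest is given as TGI.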
What was measured:
Assay in all cases: NCI tumour cell line growth inhibition, 48 h
DMS 114 small cell lung = test system: DMS 114 small cell lung
DMS 273 small cell lung = test system: DMS 273 small cell lung
KM20L2 colon = test system: KM20L2 colon
LXFL 529 NSCLC = test system: LXFL 529 NSCLC
M19-MEL melanoma = test system: M19-MEL melanoma
XF 498 CNS = test system: XF 498 CNS
HOP-18 NSCLC = test system: HOP-18 NSCLC
RXF-631 renal = test system: RXF-631 renal
MDA-N = test system: MDA-N

SMILES	TGI (DMS 114 small cell lung) [µM]	TGI (DMS 273 small cell lung) [µM]	TGI (KM20L2 colon) [µM]	TGI (LXFL 529 NSCLC) [µM]	TGI (M19-MEL melanoma) [µM]	TGI (XF 498 CNS) [µM]	TGI (HOP-18 NSCLC) [µM]	TGI (RXF-631 renal) [µM]	TGI (MDA-N) [µM]	other results
COCc1c(CO)cnc(C)c1OC1OC(CO)C(O)C(O)C1O (stereo unspecified)	> 100	> 100	> 100	> 100	> 100	> 100				
N.N.N.N.O=NN1CCCCCC1(P(=O)([O-])[O-])P(=O)([O-])[O-].[Pt+4].[Pt+4]		> 100	> 100	> 100			> 100			GI50 (DMS 273 small cell lung): > 100 µM; GI50 (HOP-18 NSCLC): > 100 µM; GI50 (KM20L2 colon): > 100 µM; GI50 (LXFL 529 NSCLC): > 100 µM
CC(/C=C/C(=O)c1sc(-n2nc(-c3ccccc3)cc2-c2ccccc2)nc1C)=C\c1ccccc1	> 100	> 100	> 100	> 100	> 100			> 100		GI50 (DMS 273 small cell lung): > 100 µM
Cc1nnc(N=Nc2c(O)[nH]c3c(Cl)cc(Cl)cc23)n1N			> 100	> 100	> 100		> 100			
O=C1Nc2cc(Cl)ccc2N=CC1NC(=O)C(c1ccccc1)c1ccccc1Cl (stereo unspecified)	> 100	> 100	> 100	> 100	> 100		> 100	> 100		
COc1cc2c3c(c4ccc(OC)c(OC)c4c2cc1OC)CN1CCC[C@@H]1C3									12.2	
Cc1ccc(-n2c3nc(=O)n(C)c(=O)c-3nc3ccccc32)cc1	27.6	20.1	26.3	> 100		55.9	40.4			
CCN(CC)CC.CCOc1ccc(NC(=O)N=C=[N-])cc1.[CH-]1CCCCC1.[CH-]1CCCCC1.[CH-]1CCCCC1.[Cl-].[Sn+4]	0.0594	0.0482	0.0505	0.0488	0.0513	0.103	0.0376	0.0648	0.0471	GI50 (DMS 114 small cell lung): 0.0214 µM; GI50 (DMS 273 small cell lung): 0.0185 µM; GI50 (HOP-18 NSCLC): 0.0135 µM; GI50 (KM20L2 colon): 0.0229 µM; GI50 (LXFL 529 NSCLC): 0.0193 µM; GI50 (M19-MEL melanoma): 0.0208 µM; GI50 (MDA-N): 0.0205 µM; GI50 (RXF-631 renal): 0.0202 µM; GI50 (XF 498 CNS): 0.0335 µM
C[C@H]1CC[C@H]([C@@H](C)[C@H]2[C@@H](O)C[C@H]3[C@@H]4CC[C@H]5C[C@@H](O)CC[C@]5(C)[C@H]4CC[C@]23C)NC1									43.8	
CCC(=O)C1(c2ccccc2)CCN(C)CC1									> 100	
C[N+](C)(C)CC(=O)N/N=C(\CCC(=O)NCCc1ccccc1)CC(=O)c1ccccc1	> 100	> 100	> 100	> 100	> 100	> 100	> 100			
CN(C)c1ncnc2c1Cc1ccccc1C(=O)N2C	> 100	> 100	> 100	> 100	> 100	> 100	> 100	> 100		
C#CCSc1n[nH]c(-c2ccco2)n1									> 100	
CC1CN(c2ccc(Cl)cc2)CC(C)(C)OC(=O)O1 (stereo unspecified)	> 100	> 100	> 100	> 100	> 100	> 100		> 100		
Nc1nc(Cl)cc(NCCCCCNc2cc(Cl)nc(N)n2)n1		> 100	> 100	> 100			> 100	> 100		
CO/[N+]([O-])=C\C(=O)N/C=C/C(=O)O									> 100	
O=C(NCCO)c1cc2c(cn1)[nH]c1ccccc12	> 100	> 100	> 100	> 100		> 100		> 100		
CSc1nc(NC2OCC(OC(C)=O)C(OC(C)=O)C2OC(C)=O)c(N=C(C)C(C)=O)c(=O)n1C (stereo unspecified)	> 100	> 100	> 100	> 100	> 100	> 100	> 100	> 100		
C=CC(=O)N1C/C(=C\c2ccccc2)C(=O)/C(=C/c2ccccc2)C1	2.73	2.13	3.1	2.82	2.48	3.54	9.97		1.07	GI50 (MDA-N): 0.427 µM

Reference: PubChem BioAssay (NCI)
